Patent US20240043408A1, “CRYSTAL FORM OF FIBROBLAST GROWTH FACTOR RECEPTOR INHIBITOR AND PREPARATION METHOD THEREFOR” (Transthera Sciences (Nanjing), Inc., priority 2020, published 2024)
Like-named read-outs stand apart in the source and are kept apart here. Blank lines part the entries; values can stand above or below the molecule they belong to.

Columns and labels:
[1] = Stability test of amorphous form and crystal form I at 105° C. and 60° C.; format: physicochemical
Method: The “destructive impurity” described herein refers to an additional peak in a liquid chromatogram of a sample in a stability test compared with the liquid chromatogram of the sample on day 0.
The bottles were let stand at 105° C. (samples were taken on days 3, 5 and 10) and at 60° C. (samples were taken on days 10, 20 and 30). The taken samples were investigated for changes in appearance, related substances and form.
Proper amounts of amorphous form samples of the compound (I) were placed into weighing bottles. The bottles were let stand at 105° C. (samples were taken on days 3, 5 and 10) and at 60° C. (samples were taken on days 10, 20 and 30). The taken samples were investigated for changes in appearance, related substances.

[2] = test system: SNU-16 cells; assay: Cell viability assay (Cell titer-Glo, 72 h); format: cell-based; settings: for IC50: SNU-16 gastric cancer cells with FGFR abnormalities, 72 h, Cell titer-Glo, read-out: Inhibitory activity (nM) on SNU-16 cells (IC50)
Method: SNU-16 is a gastric cancer cell with FGFR abnormalities.
Instrument: Espire multi-functional microplate reader
SNU-16 cells were seeded in a 96-well plate for adherent culture overnight, and then compounds at different concentrations (12 dose groups, serial 3-fold dilution with DMSO) were added to give final concentrations of 0.17-30000 nM, wherein the final DMSO content was 5%. Negative control wells contained a 5% DMSO medium. The plate was incubated at 37° C., 5% CO2 and 95% humidity for 72 h for later test. 30 μL of Cell titer-Glo reagent was added to each well, and after the plate was incubated at room temperature for 30 min, the final data were read by Espire.

[3] = Stability test of crystal form I under influencing factors (60° C., RH 92.5%, RH 75%, illumination); format: physicochemical
Text: Samples were taken on days 0, 4 and 10, and investigated for changes in properties and purity.

[4] = 60° C., Day 10, additional HPLC peaks vs day 0
[5] = Illumination (≥4500±500 Lux), Day 4
[6] = Illumination (≥4500±500 Lux), Day 10

Appearance ([1]; 60° C., Day 10): Pale yellow powder | Related substances (%) ([1]; 60° C., Day 10): 0.73% | Destructive impurity (%) [1, 4]: 0.06% | Appearance ([1]; 60° C., Day 20): Pale yellow powder | Related substances (%) ([1]; 60° C., Day 20): 0.72% | Appearance ([1]; 60° C., Day 30): Pale yellow powder | Related substances (%) ([1]; 60° C., Day 30): 0.75% | Appearance ([1]; 105° C., Day 3): Pale yellow powder | Related substances (%) ([1]; 105° C., Day 3): 1.3% | Appearance ([1]; 105° C., Day 5): Pale yellow powder | Related substances (%) ([1]; 105° C., Day 5): 1.6% | Appearance ([1]; 105° C., Day 10): Pale yellow powder | Related substances (%) ([1]; 105° C., Day 10): 2.5% | Appearance ([1]; Day 0): Pale yellow powder | Destructive impurity (%) ([1]; Day 0): None | Related substances (%) ([1]; Day 0): 0.62% | Number of destructive impurities detected (HPLC) ([1]; stored at 60° C. for 30 days): 2 | Number of destructive impurities detected (HPLC) ([1]; stored at 105° C. for 10 days): 7
SMILES: C=CC(=O)N1C[C@@H](Nc2ncc3cc(-c4c(Cl)c(OC)cc(OC)c4Cl)ccc3n2)C[C@H]1CO [Amorphous form, 1-((2S,4S)-4-((6-(2,6-dichloro-3,5-dimethoxyphenyl)quinazolin-2-yl)amino)-2-(hydroxymethyl)pyrrolidin-1-yl)prop-2-en-1-one]
IC50 ([2]; Homo sapiens, SNU-16, 72 h): 11 nM

Appearance ([3]; 60° C., Day 4, open bottle): Off-white powder | Purity % ([3]; 60° C., Day 4, open bottle): 99.6% | Appearance ([3]; 60° C., Day 10, open bottle): Off-white powder | Purity % ([3]; 60° C., Day 10, open bottle): 99.6% | Appearance ([3]; 75% RH, Day 4, open bottle): Off-white powder | Purity % ([3]; 75% RH, Day 4, open bottle): 99.6% | Appearance ([3]; 75% RH, Day 10, open bottle): Off-white powder | Purity % ([3]; 75% RH, Day 10, open bottle): 99.6% | Appearance ([3]; 92.5% RH, Day 4, open bottle): Off-white powder | Purity % ([3]; 92.5% RH, Day 4, open bottle): 99.6% | Appearance ([3]; 92.5% RH, Day 10, open bottle): Off-white powder | Purity % ([3]; 92.5% RH, Day 10, open bottle): 99.6% | Appearance ([3]; Day 0): Off-white powder | Purity % ([3]; Day 0): 99.6% | Appearance [3, 5]: Off-white powder | Purity % [3, 5]: 99.6% | Appearance [3, 6]: Pale yellow powder | Purity % [3, 6]: 99.5% | Change of appearance and purity ([3]; after 10 days in various influencing factor conditions): did not change significantly | Appearance ([1]; 60° C., Day 10): Off-white powder | Form (XRPD) ([1]; 60° C., Day 10): Crystal form I | Related substances (%) ([1]; 60° C., Day 10): 0.64% | Destructive impurity (%) [1, 4]: Undetectable | Appearance ([1]; 60° C., Day 20): Off-white powder | Form (XRPD) ([1]; 60° C., Day 20): Crystal form I | Related substances (%) ([1]; 60° C., Day 20): 0.64% | Destructive impurity (%) ([1]; 60° C., Day 20, additional HPLC peaks vs day 0): Undetectable | Appearance ([1]; 60° C., Day 30): Off-white powder | Form (XRPD) ([1]; 60° C., Day 30): Crystal form I | Related substances (%) ([1]; 60° C., Day 30): 0.68% | Destructive impurity (%) ([1]; 60° C., Day 30, additional HPLC peaks vs day 0): Undetectable | Appearance ([1]; 105° C., Day 3): Off-white powder | Form (XRPD) ([1]; 105° C., Day 3): Crystal form I | Related substances (%) ([1]; 105° C., Day 3): 0.62% | Destructive impurity (%) ([1]; 105° C., Day 3, additional HPLC peaks vs day 0): Undetectable | Appearance ([1]; 105° C., Day 5): Off-white powder | Form (XRPD) ([1]; 105° C., Day 5): Crystal form I | Related substances (%) ([1]; 105° C., Day 5): 0.60% | Destructive impurity (%) ([1]; 105° C., Day 5, additional HPLC peaks vs day 0): Undetectable | Appearance ([1]; 105° C., Day 10): Off-white powder | Form (XRPD) ([1]; 105° C., Day 10): Crystal form I | Related substances (%) ([1]; 105° C., Day 10): 0.63% | Destructive impurity (%) ([1]; 105° C., Day 10, additional HPLC peaks vs day 0): Undetectable | Appearance ([1]; Day 0): Off-white powder | Destructive impurity (%) ([1]; Day 0): None | Form (XRPD) ([1]; Day 0): Crystal form I | Related substances (%) ([1]; Day 0): 0.64% | Change of appearance, related substances and form ([1]; after storage at 105° C. for 10 days and at 60° C. for 30 days): did not change significantly
SMILES: C=CC(=O)N1C[C@@H](Nc2ncc3cc(-c4c(Cl)c(OC)cc(OC)c4Cl)ccc3n2)C[C@H]1CO [Crystal form I, 1-((2S,4S)-4-((6-(2,6-dichloro-3,5-dimethoxyphenyl)quinazolin-2-yl)amino)-2-(hydroxymethyl)pyrrolidin-1-yl)prop-2-en-1-one]
Inhibitory activity on SNU-16 cells (in words) ([2]; SNU-16 cells with FGFR abnormalities): good inhibitory activity | IC50 [2]: 9.5 nM
